In patent publication US20080275073A1, “CRYSTALLINE FORMS AND POLYMORPHS OF N-(3-(DIMETHYLAMINO)PROPYL)-4-(4-(3-FLUORO-4-METHOXYPHENYL) PYRIMIDIN-2-YLAMINO) BENZENESULFONAMIDE AS PHARMACEUTICALLY ACCEPTABLE SALTS” (Wyeth, priority 2007, published 2008):

Tests used:
[1] = water solubility of free base and salts of compound 3; type: physicochemical
Experimental: (§1) In an exemplary embodiment, the solubility of the free base form of compound 3 in THF, DMSO and DMF was high but the solubility in group 3 solvents, including water for example, was low. For example, acetone is needed to dissolve the free base at 50° C. […] HCl, phosphoric acid, tartaric acid, acetic acid, D-, L-glucoronic acid and succinic acid were used to prepare pharmaceutically acceptable salts of compound 3. One crystalline form of compound 3 as a mono-succinate salt and five crystalline polymorphs of compound 3 as a hemi-succinate salt are provided in the Examples.

[2] = solubility of free base in organic solvents / group 3 solvents; type: physicochemical; conditions: free base form
Experimental: as §1

Row | SMILES | Solubility in water ([1]; free base, thermogravimeteric method) | solubility in DMF ([2]; DMF) | solubility in DMSO ([2]; DMSO) | solubility in THF ([2]; THF) | solubility in group 3 solvents, including water ([2]; group 3 solvents, including water) | solubility ([1]; thermodynamic from solid, in water) [µg/mL]
1 | COc1ccc(-c2ccnc(Nc3ccc(S(=O)(=O)NCCCN(C)C)cc3)n2)cc1F [compound 3] | not detectable | high | high | high | low | 
2 | COc1ccc(-c2ccnc(Nc3ccc(S(=O)(=O)NCCCN(C)C)cc3)n2)cc1F.O=C(O)CCC(=O)O [mono-succinate, N-(3-(dimethylamino)propyl)-4-(4-(3-fluoro-4-methoxyphenyl)pyrimidin-2-ylamino)benzenesulfonamide] |  |  |  |  |  | 1100
